Experimental data taken from PubChem BioAssay AID1259407 (Chemical Carcinogenesis Research Information System (CCRIS), 2018).
Activity calls are given as the source filed them. How the calls were made is not given here.

System: CCRIS mutagenicity, Ames/micronucleus/aberration tests
Assay: CCRIS mutagenicity studies
[1] = Test System: AMES SALMONELLA TYPHIMURIUM, Strain/Indicator: TA98, Metabolic Activation: HAMSTER, LIVER, S-9, AROCLOR 1254 (30%), Method: PREINCUBATION
[2] = Test System: AMES SALMONELLA TYPHIMURIUM, Strain/Indicator: TA98, Metabolic Activation: NONE, Method: PREINCUBATION
[3] = Test System: AMES SALMONELLA TYPHIMURIUM, Strain/Indicator: TA98, Metabolic Activation: NONE, Method: STANDARD PLATE
[4] = Test System: AMES SALMONELLA TYPHIMURIUM, Strain/Indicator: TA98, Metabolic Activation: RAT, LIVER, S-9, AROCLOR 1254 (30%), Method: PREINCUBATION
[5] = Test System: AMES SALMONELLA TYPHIMURIUM, Strain/Indicator: TA100, Metabolic Activation: HAMSTER, LIVER, S-9, AROCLOR 1254 (30%), Method: PREINCUBATION
[6] = Test System: AMES SALMONELLA TYPHIMURIUM, Strain/Indicator: TA100, Metabolic Activation: NONE, Method: PREINCUBATION
[7] = Test System: AMES SALMONELLA TYPHIMURIUM, Strain/Indicator: TA100, Metabolic Activation: NONE, Method: STANDARD PLATE
[8] = Test System: AMES SALMONELLA TYPHIMURIUM, Strain/Indicator: TA100, Metabolic Activation: RAT, LIVER, S-9, AROCLOR 1254 (30%), Method: PREINCUBATION
[9] = Test System: AMES SALMONELLA TYPHIMURIUM, Strain/Indicator: TA100, Metabolic Activation: RAT, LIVER, S-9, AROCLOR 1254, Method: STANDARD PLATE
[10] = Test System: AMES SALMONELLA TYPHIMURIUM, Strain/Indicator: TA1535, Metabolic Activation: NONE, Method: PREINCUBATION
[11] = Test System: AMES SALMONELLA TYPHIMURIUM, Strain/Indicator: TA1537, Metabolic Activation: NONE, Method: PREINCUBATION

`Cc1cc(Cl)ccc1O` was tested, and the mutagenic call (Test System: AMES SALMONELLA TYPHIMURIUM, Strain/Indicator: TA97, Metabolic Activation: HAMSTER, LIVER, S-9, AROCLOR 1254 (10%), Method: PREINCUBATION) was “inactive; negative”, the mutagenic call (Test System: AMES SALMONELLA TYPHIMURIUM, Strain/Indicator: TA97, Metabolic Activation: HAMSTER, LIVER, S-9, AROCLOR 1254 (30%), Method: PREINCUBATION) was “inactive; negative” and the mutagenic call (Test System: AMES SALMONELLA TYPHIMURIUM, Strain/Indicator: TA97, Metabolic Activation: NONE, Method: PREINCUBATION) was “inactive; negative”. The mutagenic call (Test System: AMES SALMONELLA TYPHIMURIUM, Strain/Indicator: TA97, Metabolic Activation: NONE, Method: STANDARD PLATE) was “active; positive”, the mutagenic call (Test System: AMES SALMONELLA TYPHIMURIUM, Strain/Indicator: TA97, Metabolic Activation: RAT, LIVER, S-9, AROCLOR 1254 (10%), Method: PREINCUBATION) was “inactive; negative” and the mutagenic call (Test System: AMES SALMONELLA TYPHIMURIUM, Strain/Indicator: TA97, Metabolic Activation: RAT, LIVER, S-9, AROCLOR 1254 (30%), Method: PREINCUBATION) was “inactive; negative”. For the same compound, the mutagenic call (Test System: AMES SALMONELLA TYPHIMURIUM, Strain/Indicator: TA97, Metabolic Activation: RAT, LIVER, S-9, AROCLOR 1254, Method: STANDARD PLATE) was “active; positive”, the mutagenic call (Test System: AMES SALMONELLA TYPHIMURIUM, Strain/Indicator: TA98, Metabolic Activation: HAMSTER, LIVER, S-9, AROCLOR 1254 (10%), Method: PREINCUBATION) was “inactive; negative” and the mutagenic call [1] was “inactive; negative”. The mutagenic call [2] was “inactive; negative”, the mutagenic call [3] was “inactive; negative” and the mutagenic call (Test System: AMES SALMONELLA TYPHIMURIUM, Strain/Indicator: TA98, Metabolic Activation: RAT, LIVER, S-9, AROCLOR 1254 (10%), Method: PREINCUBATION) was “inactive; negative”. The mutagenic call [4] was “inactive; negative”, the mutagenic call (Test System: AMES SALMONELLA TYPHIMURIUM, Strain/Indicator: TA98, Metabolic Activation: RAT, LIVER, S-9, AROCLOR 1254, Method: STANDARD PLATE) was “active; positive” and the mutagenic call (Test System: AMES SALMONELLA TYPHIMURIUM, Strain/Indicator: TA100, Metabolic Activation: HAMSTER, LIVER, S-9, AROCLOR 1254 (10%), Method: PREINCUBATION) was “inactive; negative”. For the same compound, the mutagenic call [5] was “inactive; negative”, the mutagenic call [6] was “inactive; negative” and the mutagenic call [7] was “inactive; negative”. For the same compound, the mutagenic call (Test System: AMES SALMONELLA TYPHIMURIUM, Strain/Indicator: TA100, Metabolic Activation: RAT, LIVER, S-9, AROCLOR 1254 (10%), Method: PREINCUBATION) was “inactive; negative”, the mutagenic call [8] was “inactive; negative” and the mutagenic call [9] was “active; positive”. The mutagenic call (Test System: AMES SALMONELLA TYPHIMURIUM, Strain/Indicator: TA104, Metabolic Activation: NONE, Method: STANDARD PLATE) was “inactive; negative”, the mutagenic call (Test System: AMES SALMONELLA TYPHIMURIUM, Strain/Indicator: TA104, Metabolic Activation: RAT, LIVER, S-9, AROCLOR 1254, Method: STANDARD PLATE) was “inactive; negative” and the mutagenic call (Test System: AMES SALMONELLA TYPHIMURIUM, Strain/Indicator: TA1535, Metabolic Activation: HAMSTER, LIVER, S-9, AROCLOR 1254 (10%), Method: PREINCUBATION) was “inactive; negative”. For the same compound, the mutagenic call (Test System: AMES SALMONELLA TYPHIMURIUM, Strain/Indicator: TA1535, Metabolic Activation: HAMSTER, LIVER, S-9, AROCLOR 1254 (30%), Method: PREINCUBATION) was “inactive; negative”, the mutagenic call [10] was “inactive; negative” and the mutagenic call (Test System: AMES SALMONELLA TYPHIMURIUM, Strain/Indicator: TA1535, Metabolic Activation: RAT, LIVER, S-9, AROCLOR 1254 (10%), Method: PREINCUBATION) was “inactive; negative”. The mutagenic call (Test System: AMES SALMONELLA TYPHIMURIUM, Strain/Indicator: TA1535, Metabolic Activation: RAT, LIVER, S-9, AROCLOR 1254 (30%), Method: PREINCUBATION) was “inactive; negative”, the mutagenic call (Test System: AMES SALMONELLA TYPHIMURIUM, Strain/Indicator: TA1537, Metabolic Activation: HAMSTER, LIVER, S-9, AROCLOR 1254 (30%), Method: PREINCUBATION) was “inactive; negative” and the mutagenic call [11] was “inactive; negative”. For the same compound, the mutagenic call (Test System: AMES SALMONELLA TYPHIMURIUM, Strain/Indicator: TA1537, Metabolic Activation: RAT, LIVER, S-9, AROCLOR 1254 (30%), Method: PREINCUBATION) was “inactive; negative”.

For `CCN(CC)c1ccc2c(-c3ccc(S(=O)(=O)O)cc3S(=O)(=O)[O-])c3ccc(=[N+](CC)CC)cc-3oc2c1`, the mutagenic call (End Point: IN VIVO MICRONUCLEUS, Test System: BONE MARROW POLYCHROMATIC ERYTHROCYTES, Species: MOUSE, Strain/Sex: DDY/MALE, Route: IP) was “inactive; negative”, the mutagenic call (Test System: AMES SALMONELLA TYPHIMURIUM, Strain/Indicator: TA98, Metabolic Activation: HAMSTER, LIVER, S-9, AROCLOR 1254 (10%), Method: STANDARD PLATE) was “active; positive” and the mutagenic call [3] was “inactive; negative”. For the same compound, the mutagenic call (Test System: AMES SALMONELLA TYPHIMURIUM, Strain/Indicator: TA98, Metabolic Activation: RAT, LIVER, S-9, AROCLOR 1254 (10%), Method: STANDARD PLATE) was “active; positive”, the mutagenic call (Test System: AMES SALMONELLA TYPHIMURIUM, Strain/Indicator: TA100, Metabolic Activation: HAMSTER, LIVER, S-9, AROCLOR 1254 (10%), Method: STANDARD PLATE) was “inactive; negative” and the mutagenic call [7] was “inactive; negative”. For the same compound, the mutagenic call (Test System: AMES SALMONELLA TYPHIMURIUM, Strain/Indicator: TA100, Metabolic Activation: RAT, LIVER, S-9, AROCLOR 1254 (10%), Method: STANDARD PLATE) was “inactive; negative”, the mutagenic call (Test System: AMES SALMONELLA TYPHIMURIUM, Strain/Indicator: TA1538, Metabolic Activation: NONE, Method: STANDARD PLATE) was “inactive; negative” and the mutagenic call (Test System: AMES SALMONELLA TYPHIMURIUM, Strain/Indicator: TA1538, Metabolic Activation: RAT, LIVER, S-9, AROCLOR 1254, Method: STANDARD PLATE) was “inactive; negative”. For the same compound, the mutagenic call (Test System: MOUSE LYMPHOMA, Strain/Indicator: L5178Y (TK+/TK-), Metabolic Activation: NONE, Method: SUSPENSION/PLATE) was “inactive; negative” and the mutagenic call (Test System: MOUSE LYMPHOMA, Strain/Indicator: L5178Y (TK+/TK-), Metabolic Activation: RAT, LIVER, S-9, AROCLOR 1254, Method: SUSPENSION/PLATE) was “active; positive”.

`c1cc2c3c(c1)ccc1cccc(c13)C2` was tested, and the mutagenic call [1] was “active; positive”, the mutagenic call [2] was “inactive; negative” and the mutagenic call [4] was “inactive; negative”. The mutagenic call [5] was “active; positive”, the mutagenic call [6] was “inactive; negative” and the mutagenic call [8] was “active; positive”. For the same compound, the mutagenic call [9] was “inactive; negative”.

In the case of `Nc1ccc(O)c(C(=O)O)c1`, the mutagenic call [2] is reported as “inactive; negative”, the mutagenic call (Test System: AMES SALMONELLA TYPHIMURIUM, Strain/Indicator: TA98, Metabolic Activation: S-9, Method: PREINCUBATION) is reported as “inactive; negative” and the mutagenic call [6] is reported as “inactive; negative”. The mutagenic call (Test System: AMES SALMONELLA TYPHIMURIUM, Strain/Indicator: TA100, Metabolic Activation: S-9, Method: PREINCUBATION) was “inactive; negative”, the mutagenic call [10] was “inactive; negative” and the mutagenic call (Test System: AMES SALMONELLA TYPHIMURIUM, Strain/Indicator: TA1535, Metabolic Activation: S-9, Method: PREINCUBATION) was “inactive; negative”. The mutagenic call [11] was “inactive; negative”, the mutagenic call (Test System: AMES SALMONELLA TYPHIMURIUM, Strain/Indicator: TA1537, Metabolic Activation: S-9, Method: PREINCUBATION) was “inactive; negative” and the mutagenic call (Test System: E. COLI, Strain/Indicator: WP2 UVRA, Metabolic Activation: NONE, Method: PREINCUBATION) was “inactive; negative”. For the same compound, the mutagenic call (Test System: E. COLI, Strain/Indicator: WP2 UVRA, Metabolic Activation: S-9, Method: PREINCUBATION) was “inactive; negative”.
